Source: publication doi:10.1101/2023.03.24.534094v2 (biorxiv, 2023)
Where two headings read alike, the source gives them in different places.

Tests used:
Experiment in all cases: biochemical
[1] = molecular target: T1, BMPR2 (Homo sapiens, UniProt Q13873)
T1 sequence (Q13873 1-1038): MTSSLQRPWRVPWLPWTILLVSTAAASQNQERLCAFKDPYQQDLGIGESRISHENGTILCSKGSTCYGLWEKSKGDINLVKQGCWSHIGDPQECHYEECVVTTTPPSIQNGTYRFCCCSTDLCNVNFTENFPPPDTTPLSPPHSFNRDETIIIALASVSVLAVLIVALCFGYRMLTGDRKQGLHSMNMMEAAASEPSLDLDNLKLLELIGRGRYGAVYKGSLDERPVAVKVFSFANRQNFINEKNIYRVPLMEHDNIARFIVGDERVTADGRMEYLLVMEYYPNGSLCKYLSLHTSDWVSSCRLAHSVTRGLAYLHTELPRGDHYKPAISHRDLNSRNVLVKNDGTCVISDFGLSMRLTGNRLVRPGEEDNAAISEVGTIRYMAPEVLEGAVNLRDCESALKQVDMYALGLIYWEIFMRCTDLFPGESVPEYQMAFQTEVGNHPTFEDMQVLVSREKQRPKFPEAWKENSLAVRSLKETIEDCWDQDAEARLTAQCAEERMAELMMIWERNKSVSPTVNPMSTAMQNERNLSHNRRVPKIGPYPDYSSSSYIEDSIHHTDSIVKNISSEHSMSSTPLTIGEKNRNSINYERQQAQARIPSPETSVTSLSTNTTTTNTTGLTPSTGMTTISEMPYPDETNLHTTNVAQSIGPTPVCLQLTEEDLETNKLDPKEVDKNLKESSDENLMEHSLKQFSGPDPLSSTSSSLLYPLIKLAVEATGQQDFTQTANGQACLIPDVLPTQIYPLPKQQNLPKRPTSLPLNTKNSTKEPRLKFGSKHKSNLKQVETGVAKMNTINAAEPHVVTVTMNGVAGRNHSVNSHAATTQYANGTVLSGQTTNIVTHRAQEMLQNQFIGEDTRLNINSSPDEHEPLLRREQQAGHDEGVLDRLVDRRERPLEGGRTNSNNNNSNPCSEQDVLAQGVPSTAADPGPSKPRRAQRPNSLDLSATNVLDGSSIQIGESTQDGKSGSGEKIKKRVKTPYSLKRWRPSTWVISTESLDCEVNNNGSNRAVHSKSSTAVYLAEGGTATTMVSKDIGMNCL

[2] = molecular target: T2, DYRK2 (Homo sapiens, UniProt Q92630)
T2 sequence (Q92630 1-601): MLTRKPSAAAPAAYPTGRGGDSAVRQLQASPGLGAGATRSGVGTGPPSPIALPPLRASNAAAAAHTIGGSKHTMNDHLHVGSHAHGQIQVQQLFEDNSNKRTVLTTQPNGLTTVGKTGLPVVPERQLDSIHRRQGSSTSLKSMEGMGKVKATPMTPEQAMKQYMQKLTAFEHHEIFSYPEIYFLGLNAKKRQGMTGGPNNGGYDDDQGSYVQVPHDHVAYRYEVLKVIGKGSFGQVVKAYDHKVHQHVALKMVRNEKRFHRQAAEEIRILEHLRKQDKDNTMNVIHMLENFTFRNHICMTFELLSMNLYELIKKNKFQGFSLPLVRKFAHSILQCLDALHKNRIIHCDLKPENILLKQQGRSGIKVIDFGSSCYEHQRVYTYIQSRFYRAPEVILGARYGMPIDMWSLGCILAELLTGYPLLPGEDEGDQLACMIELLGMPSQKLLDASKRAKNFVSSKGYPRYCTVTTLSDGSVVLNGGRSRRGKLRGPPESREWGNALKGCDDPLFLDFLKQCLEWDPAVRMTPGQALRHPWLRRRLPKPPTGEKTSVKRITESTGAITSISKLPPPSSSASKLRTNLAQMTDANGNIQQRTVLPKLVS

[3] = molecular target: T3, TLK1 (Homo sapiens, UniProt Q9UKI8)
T3 sequence (Q9UKI8 1-766): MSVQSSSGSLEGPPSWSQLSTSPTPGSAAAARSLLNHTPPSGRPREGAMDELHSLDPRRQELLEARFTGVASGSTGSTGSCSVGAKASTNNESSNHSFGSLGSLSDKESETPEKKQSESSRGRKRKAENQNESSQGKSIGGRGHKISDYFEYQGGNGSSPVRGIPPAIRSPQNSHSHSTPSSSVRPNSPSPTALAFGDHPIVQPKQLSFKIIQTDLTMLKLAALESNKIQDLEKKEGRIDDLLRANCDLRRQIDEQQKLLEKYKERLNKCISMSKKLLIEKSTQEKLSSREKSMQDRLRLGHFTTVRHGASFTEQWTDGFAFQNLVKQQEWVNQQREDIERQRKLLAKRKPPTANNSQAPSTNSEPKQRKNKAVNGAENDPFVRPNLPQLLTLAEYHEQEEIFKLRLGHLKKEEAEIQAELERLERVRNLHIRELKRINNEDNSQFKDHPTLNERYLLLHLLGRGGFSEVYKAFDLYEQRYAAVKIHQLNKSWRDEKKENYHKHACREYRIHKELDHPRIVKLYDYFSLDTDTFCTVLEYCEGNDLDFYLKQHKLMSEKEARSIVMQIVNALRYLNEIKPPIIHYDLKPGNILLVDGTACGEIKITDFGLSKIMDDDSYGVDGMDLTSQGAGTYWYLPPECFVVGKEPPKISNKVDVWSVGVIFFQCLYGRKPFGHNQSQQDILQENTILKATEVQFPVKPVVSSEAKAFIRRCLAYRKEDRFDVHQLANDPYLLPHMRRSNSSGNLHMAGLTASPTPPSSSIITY

[4] = molecular target: OSR1 (Homo sapiens, UniProt O95747)
Chain of OSR1 (O95747 whole entry): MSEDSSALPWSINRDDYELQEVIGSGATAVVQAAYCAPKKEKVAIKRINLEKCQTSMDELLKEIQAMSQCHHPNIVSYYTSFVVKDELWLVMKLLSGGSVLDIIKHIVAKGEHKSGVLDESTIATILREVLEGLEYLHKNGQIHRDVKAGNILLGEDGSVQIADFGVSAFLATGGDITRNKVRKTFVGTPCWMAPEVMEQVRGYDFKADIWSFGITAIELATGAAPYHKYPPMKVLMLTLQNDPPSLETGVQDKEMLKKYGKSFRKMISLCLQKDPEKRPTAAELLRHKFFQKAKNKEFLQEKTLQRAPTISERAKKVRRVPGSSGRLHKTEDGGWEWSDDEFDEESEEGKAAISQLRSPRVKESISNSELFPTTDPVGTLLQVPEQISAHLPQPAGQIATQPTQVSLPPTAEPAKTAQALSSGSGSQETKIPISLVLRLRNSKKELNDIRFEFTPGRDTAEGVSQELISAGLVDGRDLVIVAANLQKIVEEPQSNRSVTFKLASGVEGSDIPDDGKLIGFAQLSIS

## CNc1ncc2cc(-c3cc(F)c(-c4cccc(C)n4)cc3F)c(=O)n(CCCCN)c2n1 [compound 12, 8-(4-Aminobutyl)-6-(2,5-difluoro-4-(6-methylpyridin-2-yl)phenyl)-2-(methylamino)pyrido[2,3-d]pyrimidin-7(8H)-one]
[1]; read-out: dTm 12
  ΔTm at 10 µM: -0.2 °C
[2]; read-out: dTm 12
  ΔTm at 10 µM: -0.2 °C
[3]; read-out: dTm 12
  ΔTm at 10 µM: -1.5 °C
[4]; read-out: dTm 12
  ΔTm at 10 µM: -0.2 °C

## CNc1ncc2cc(-c3cc(C(F)(F)F)ccc3Cl)c(=O)n(CCCCN)c2n1 [compound 9, 8-(4-Aminobutyl)-6-(2-chloro-5-(trifluoromethyl)phenyl)-2-(methylamino)pyrido[2,3-d]pyrimidin-7(8H)-one]
[1]; read-out: dTm 9
  ΔTm at 10 µM: 0.1 °C
[2]; read-out: dTm 9
  ΔTm at 10 µM: 0 °C
[3]; read-out: dTm 9
  ΔTm at 10 µM: 0.7 °C
[4]; read-out: dTm 9
  ΔTm at 10 µM: 0.3 °C

## CNc1ncc2cc(-c3cc(Cl)ccc3Cl)c(=O)n(CCCCN)c2n1 [compound 8, 8-(4-Aminobutyl)-6-(2,5-dichlorophenyl)-2-(methylamino)pyrido[2,3-d]pyrimidin-7(8H)-one]
[1]; read-out: dTm 8
  ΔTm at 10 µM: 0.2 °C
[2]; read-out: dTm 8
  ΔTm at 10 µM: 0.1 °C
[3]; read-out: dTm 8
  ΔTm at 10 µM: 1 °C
[4]; read-out: dTm 8
  ΔTm at 10 µM: 0.3 °C

## CNc1ncc2cc(-c3cc(Cl)ccc3Br)c(=O)n(CCCCN)c2n1 [compound 10, 8-(4-Aminobutyl)-6-(2-bromo-5-chlorophenyl)-2-(methylamino)pyrido[2,3-d]pyrimidin-7(8H)-one]
[1]; read-out: dTm 10
  ΔTm at 10 µM: 0 °C
[2]; read-out: dTm 10
  ΔTm at 10 µM: 0 °C
[3]; read-out: dTm 10
  ΔTm at 10 µM: 0.5 °C
[4]; read-out: dTm 10
  ΔTm at 10 µM: -0.2 °C

## CNc1ncc2cc(-c3cc(Br)ccc3Br)c(=O)n(CCCCN)c2n1 [compound 11, 8-(4-Aminobutyl)-6-(2,5-dibromophenyl)-2-(methylamino)pyrido[2,3-d]pyrimidin-7(8H)-one]
[1]; read-out: dTm 11
  ΔTm at 10 µM: 0 °C
[2]; read-out: dTm 11
  ΔTm at 10 µM: 0 °C
[3]; read-out: dTm 11
  ΔTm at 10 µM: 1 °C
[4]; read-out: dTm 11
  ΔTm at 10 µM: 0.4 °C
